Results on six compounds are retold here after EP4582423A1, “NOVEL TRICYCLIC DERIVATIVE COMPOUND AND USES THEREOF” (Hanmi Pharm. Co., Ltd., priority 2022, dated 2024).

This test relates to HCT116 MTAP-/- cells. Briefly: Cell growth inhibition test (SRB staining). Format: cell-based. The conditions noted are these: Homo sapiens, HCT-116, 144 h; HCT116 MTAP-/- cells, 0.64 nM - 2,000 nM, 6 dose points, 6 days, SRB staining, absorbance at 540 nm; read-out: HCT116 MTAP-/- cell growth inhibition (GI50). In general terms: The SRB assay estimates cell density from bound dye.
Turning to `COc1ccc(Sc2nc3c(=O)n(-c4cccnc4C)c4nc(C(F)(F)F)ncc4c3n2C)cc1` [Compound 61, 2-((4-methoxyphenyl)thio)-1-methyl-5-(2-methylpyridin-3-yl)-7-(trifluoromethyl)-1,5-dihydro-4H-imidazo[4',5':4,5]pyrido[2,3-d]pyrimidin-4-one], the GI50 is < 100 nM.
The same measure for `CCOc1ncc2c3c(nc(Cc4ccc(OC)cc4)n3C)c(=O)n(-c3cccnc3C)c2n1` [Compound 62, 7-ethoxy-2-(4-methoxybenzyl)-1-methyl-5-(2-methylpyridin-3-yl)-1,5-dihydro-4H-imidazo[4',5':4,5]pyrido[2,3-d]pyrimidin-4-one]: > 1000 nM; for `COc1ccc2c3c(nc(Cc4ccc(OC(F)F)cc4)n3C)c(=O)n(-c3cccnc3C)c2n1` [Compound 63, 2-(4-(difluoromethoxy)benzyl)-7-methoxy-1-methyl-5-(2-methylpyridin-3-yl)-1,5-dihydro-4H-imidazo[4,5-c][1,8]naphthyridin-4-one]: < 100 nM.
The same measure for `COc1ccc(Cc2nc3c(=O)n(-c4cccnc4C)c4nc(OC)ccc4c3n2C)cc1` [Compound 64, 7-methoxy-2-(4-methoxybenzyl)-1-methyl-5-(2-methylpyridin-3-yl)-1,5-dihydro-4H-imidazo[4,5-c][1,8]naphthyridin-4-one]: < 100 nM; for `CCc1ccc2c3c(nc(Cc4ccc(OC(F)F)cc4)n3C)c(=O)n(-c3cccnc3C)c2n1` [Compound 65, 2-(4-(difluoromethoxy)benzyl)-7-ethyl-1-methyl-5-(2-methylpyridin-3-yl)-1,5-dihydro-4H-imidazo[4,5-c][1,8]naphthyridin-4-one]: < 100 nM; for `Cc1ncccc1-n1c(=O)c2nc(Cc3ccc(OC(F)F)cc3)n(C)c2c2ccc(C3CC3)nc21` [Compound 66, 7-cyclopropyl-2-(4-(difluoromethoxy)benzyl)-1-methyl-5-(2-methylpyridin-3-yl)-1,5-dihydro-4H-imidazo[4,5-c][1,8]naphthyridin-4-one]: < 100 nM.
